Assay results from US11000033B2, “Ketone or oxime compound, and herbicide” (NISSAN CHEMICAL CORPORATION, priority 2014, dated 2021).

Experiments:
Format in all cases: in vivo
Avena fatua = assay: Test Example 4: herbicidal effect by soil treatment (symbol I); conditions: application herbicide amount 320 g/ha
How it was run: (§1)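 Seeds were sown in sterilized diluvial soil, covered with about 1.5 cm of soil, and the soil surface was sprayed with a water-diluted emulsion of the compound at a predetermined rate. Plants grew in a greenhouse at 25° C. to 30° C.; effects were scored visually 3 weeks after application.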

rapeseed [1] = assay: Test Example 4: effect on crop by soil treatment (symbol g); conditions: application herbicide amount 320 g/ha
How it was run: (§2)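 Seeds were sown in spots on sterilized diluvial soil in a plastic box and covered with about 1.5 cm of soil. Plants were then grown in a greenhouse at 25° C. to 30° C.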

Apera spica-venti = assay: Test Example 4: herbicidal effect by soil treatment (symbol L); conditions: application herbicide amount 320 g/ha
How it was run: as §1

rice plant = assay: Test Example 5: effect on crop by foliage application, plastic box (symbol b); conditions: 320 g/ha, 3 weeks after application
How it was run: (§3)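 Crop seed is sown alongside grass and broadleaf weed species in spots in sterilized diluvial soil, then covered to a depth of about 1.5 cm. Plants grow in a greenhouse kept at 25° C. to 30° C.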

[2] = test system: directly sowed rice plant; assay: Test Example 3: effect on crop by foliage application, Wagner pot (symbol b); conditions: application herbicide amount 320 g/ha
How it was run: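 Steps: fill a 1/10000-are Wagner pot with alluvial soil; add water and mix to submerge at 0.1–0.5 cm depth; sow rice plus Echinochloa crus-galli var. crus-galli, Leptochloa chinensis and Cyperus difformis; grow in a 25–30 °C greenhouse.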

rapeseed [3] = assay: Test Example 5: effect on crop by foliage application, plastic box (symbol g); conditions: 320 g/ha, 3 weeks after application
How it was run: as §3

wheat [4] = assay: Test Example 4: effect on crop by soil treatment (symbol e); conditions: application herbicide amount 320 g/ha
How it was run: as §2

wheat [5] = assay: Test Example 5: effect on crop by foliage application, plastic box (symbol e); conditions: 320 g/ha, 3 weeks after application
How it was run: as §3

beet = assay: Test Example 5: effect on crop by foliage application, plastic box (symbol f); conditions: 320 g/ha, 3 weeks after application
How it was run: as §3

Scirpus juncoides = assay: Test Example 2: herbicidal activity, application during weed generation in submerged conditions (symbol B); conditions: Table 23; application herbicide amount 320 g/ha; grade 0-5 by criteria of Test Example 1
How it was run: (§4)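 Weeds emerging under flooded conditions were treated with compound formulated as an emulsion and diluted with water to the intended herbicide amount, poured onto the surface of 4 cm standing water. Seeds had been co-sown in alluvial soil; plants grew at 25° C. to 30° C. and were assessed after 3 weeks.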

[6] = test system: Echinochloa oryzacola Vasing.; assay: Test Example 2: herbicidal activity, application during weed generation in submerged conditions (symbol A); conditions: Table 23; application herbicide amount 320 g/ha; grade 0-5 by criteria of Test Example 1
How it was run: as §4

Lolium multiflorum Lam. = assay: Test Example 4: herbicidal effect by soil treatment (symbol K); conditions: application herbicide amount 320 g/ha
How it was run: as §1

Abutilon theophrasti = assay: Test Example 5: herbicidal effect by foliage application, plastic box (symbol M); conditions: 320 g/ha, 3 weeks after application
How it was run: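 Sowing in sterilized diluvial soil, 14 days' greenhouse growth at 25° C. to 30° C., then uniform small-sprayer foliar application of aqueous emulsion dilution; plants scored three weeks afterwards.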

Amaranthus retroflexus = assay: Test Example 4: herbicidal effect by soil treatment (symbol N); conditions: application herbicide amount 320 g/ha
How it was run: as §1

rice = assay: Test Example 4: effect on crop by soil treatment (symbol b); conditions: application herbicide amount 320 g/ha
How it was run: as §2

soybean = assay: Test Example 4: effect on crop by soil treatment (symbol d); conditions: application herbicide amount 320 g/ha
How it was run: as §2

| Structure (SMILES) | I (Avena fatua) herbicidal effect grade (Avena fatua) | g (rapeseed) effect on crop grade (rapeseed [1]) | L (Apera spica-venti) herbicidal effect grade (Apera spica-venti) | b: directly sowed rice plant, effect on crop grade (rice plant) | effect on crop b (directly sowed rice plant), grade 0-5 [2] | g: rapeseed, effect on crop grade (rapeseed [3]) | e (wheat) effect on crop grade (wheat [4]) | e: wheat, effect on crop grade (wheat [5]) | f: beet, effect on crop grade (beet) | Herbicidal effect grade, B: Scirpus juncoides (Scirpus juncoides) | Herbicidal effect grade, A: Echinochloa oryzacola Vasing. [6] | K (Lolium multiflorum Lam.) herbicidal effect grade (Lolium multiflorum Lam.) | M: Abutilon theophrasti, herbicidal effect grade (Abutilon theophrasti) | N (Amaranthus retroflexus) herbicidal effect grade (Amaranthus retroflexus) | b (directly sowed rice plant) effect on crop grade (rice) | d (soybean) effect on crop grade (soybean) | further results |
| --- | --- | --- | --- | --- | --- | --- | --- | --- | --- | --- | --- | --- | --- | --- | --- | --- | --- |
| C#CCON=C(C)CC1CC(O)=C(c2c(C)cc(C)cc2C)C1=O (centres unmarked) [1-019] | 5 (Herbicidal ratio of 90% or more (almost completely withered)) | 4 (Herbicidal ratio of 70% or higher and lower than 90%) | 5 (Herbicidal ratio of 90% or more (almost completely withered)) | 5 (Herbicidal ratio of 90% or more (almost completely withered)) | 5 (Herbicidal ratio of 90% or more (almost completely withered)) | 4 (Herbicidal ratio of 70% or higher and lower than 90%) | 3 (Herbicidal ratio of 40% or higher and lower than 70%) | 5 (Herbicidal ratio of 90% or more (almost completely withered)) | 4 (Herbicidal ratio of 70% or higher and lower than 90%) | 5 (Herbicidal ratio of 90% or more (almost completely withered)) | 5 (Herbicidal ratio of 90% or more (almost completely withered)) | 5 (Herbicidal ratio of 90% or more (almost completely withered)) | 4 (Herbicidal ratio of 70% or higher and lower than 90%) | 3 (Herbicidal ratio of 40% or higher and lower than 70%) | 5 (Herbicidal ratio of 90% or more (almost completely withered)) | 3 (Herbicidal ratio of 40% or higher and lower than 70%) |  |
| CC(CC1CC(O)=C(c2c(C)cc(C)cc2C)C1=O)=NOCc1ccccc1 (centres unmarked) [1-020] | 4 (Herbicidal ratio of 70% or higher and lower than 90%) | 4 (Herbicidal ratio of 70% or higher and lower than 90%) | 5 (Herbicidal ratio of 90% or more (almost completely withered)) | 5 (Herbicidal ratio of 90% or more (almost completely withered)) | 5 (Herbicidal ratio of 90% or more (almost completely withered)) | 4 (Herbicidal ratio of 70% or higher and lower than 90%) | 2 (Herbicidal ratio of 20% or higher and lower than 40%) | 5 (Herbicidal ratio of 90% or more (almost completely withered)) | 3 (Herbicidal ratio of 40% or higher and lower than 70%) | 3 (Herbicidal ratio of 40% or higher and lower than 70%) | 5 (Herbicidal ratio of 90% or more (almost completely withered)) | 5 (Herbicidal ratio of 90% or more (almost completely withered)) | 3 (Herbicidal ratio of 40% or higher and lower than 70%) | 0 (Herbicidal ratio of 5% or lower (almost no effect)) | 5 (Herbicidal ratio of 90% or more (almost completely withered)) | 0 (Herbicidal ratio of 5% or lower (almost no effect)) |  |
| CON=C(C)C(C(C)=NOC)C1CC(O)=C(c2c(C)cc(C)cc2C)C1=O (centres unmarked) [1-021] | 0 (Herbicidal ratio of 5% or lower (almost no effect)) | 0 (Herbicidal ratio of 5% or lower (almost no effect)) | 0 (Herbicidal ratio of 5% or lower (almost no effect)) | 3 (Herbicidal ratio of 40% or higher and lower than 70%) | 0 (Herbicidal ratio of 5% or lower (almost no effect)) | 2 (Herbicidal ratio of 20% or higher and lower than 40%) | 0 (Herbicidal ratio of 5% or lower (almost no effect)) | 0 (Herbicidal ratio of 5% or lower (almost no effect)) | 0 (Herbicidal ratio of 5% or lower (almost no effect)) | 0 (Herbicidal ratio of 5% or lower (almost no effect)) | 0 (Herbicidal ratio of 5% or lower (almost no effect)) | 2 (Herbicidal ratio of 20% or higher and lower than 40%) | 0 (Herbicidal ratio of 5% or lower (almost no effect)) | 0 (Herbicidal ratio of 5% or lower (almost no effect)) | 2 (Herbicidal ratio of 20% or higher and lower than 40%) | 0 (Herbicidal ratio of 5% or lower (almost no effect)) |  |
| COC(=O)CON=C(C)CC1CC(O)=C(c2c(C)cc(C)cc2C)C1=O (centres unmarked) [1-023] | 0 (Herbicidal ratio of 5% or lower (almost no effect)) | 0 (Herbicidal ratio of 5% or lower (almost no effect)) | 4 (Herbicidal ratio of 70% or higher and lower than 90%) | 4 (Herbicidal ratio of 70% or higher and lower than 90%) | 4 (Herbicidal ratio of 70% or higher and lower than 90%) | 2 (Herbicidal ratio of 20% or higher and lower than 40%) | 0 (Herbicidal ratio of 5% or lower (almost no effect)) | 0 (Herbicidal ratio of 5% or lower (almost no effect)) | 0 (Herbicidal ratio of 5% or lower (almost no effect)) | 0 (Herbicidal ratio of 5% or lower (almost no effect)) | 4 (Herbicidal ratio of 70% or higher and lower than 90%) | 3 (Herbicidal ratio of 40% or higher and lower than 70%) | 0 (Herbicidal ratio of 5% or lower (almost no effect)) | 0 (Herbicidal ratio of 5% or lower (almost no effect)) | 5 (Herbicidal ratio of 90% or more (almost completely withered)) | 0 (Herbicidal ratio of 5% or lower (almost no effect)) |  |
| CON=C(C)CC1CC(O)=C(c2c(C)cc(C3CC3)cc2C)C1=O (centres unmarked) [6-050] |  |  |  | 5 (Herbicidal ratio of 90% or more (almost completely withered)) | 5 (Herbicidal ratio of 90% or more (almost completely withered)) | 5 (Herbicidal ratio of 90% or more (almost completely withered)) |  | 0 (Herbicidal ratio of 5% or lower (almost no effect)) | 2 (Herbicidal ratio of 20% or higher and lower than 40%) | 0 (Herbicidal ratio of 5% or lower (almost no effect)) | 3 (Herbicidal ratio of 40% or higher and lower than 70%) |  | 0 (Herbicidal ratio of 5% or lower (almost no effect)) |  |  |  | I: Avena fatua, herbicidal effect grade (Avena fatua): 2 (Herbicidal ratio of 20% or higher and lower than 40%); g: rapeseed, effect on crop grade (rapeseed [1]): 2 (Herbicidal ratio of 20% or higher and lower than 40%); L: Apera spica-venti, herbicidal effect grade (Apera spica-venti): 0 (Herbicidal ratio of 5% or lower (almost no effect)); e: wheat, effect on crop grade (wheat [4]): 0 (Herbicidal ratio of 5% or lower (almost no effect)); K: Lolium multiflorum Lam., herbicidal effect grade (Lolium multiflorum Lam.): 5 (Herbicidal ratio of 90% or more (almost completely withered)); N: Amaranthus retroflexus, herbicidal effect grade (Amaranthus retroflexus): 0 (Herbicidal ratio of 5% or lower (almost no effect)); b: directly sowed rice plant, effect on crop grade (rice): 5 (Herbicidal ratio of 90% or more (almost completely withered)); d: soybean, effect on crop grade (soybean): 0 (Herbicidal ratio of 5% or lower (almost no effect)) |
